“And” between values parts separate entries of the source, which are not always exact repeats. Equal entries are not always repeated.
How the values were obtained:
anesthetized dogs [1] = test: Cardiovascular safety in anesthetized dogs, escalating 15-minute IV infusions (hemodynamics, histamine, ECG); format: in vivo, dog
Description: (§1) Dogs were administered morphine (2 mg/kg subcutaneously) approximately 10-19 minutes prior to administration of anesthesia. Dogs were anesthetized with 1% α-chloralose (100 mg/kg intravenous), followed by a constant infusion of α-chloralose (35-75 mg/kg/hr, IV). Two healthy female dogs were administered escalating doses of sulcardine sulfate intravenously over 15 minutes in an acetate buffer system at dose levels of 10, 30 and 90-mg/kg with dose administrations separated by 60 minutes. Following drug administration, dogs were evaluated for ventricular, pulmonary and peripheral hemodynamic changes using Swanz Ganz and femoral catheters as well as by monitoring of blood oxygen saturation, test article blood level, body temperature, blood biochemistries, hematologies, ECG, and histamine.
as §1, with “90 mg/kg” for “90-mg/kg”, “minutes. Another set of two dogs received test article after pre-treatment with diphenhydramine (1 mg/kg administered 30 minutes prior to start of test article infusion).” for “minutes.”, “biochemistry, hematology,” for “biochemistries, hematologies,”, “histamine levels.” for “histamine.”

[2] = Plasma concentration in dog cardiovascular safety study; format: in vivo
Description: as §1
The mean peak sulcardine sulfate concentrations which peaked generally at the […] of each 15 minute infusion of sulcardine sulfate at 10, 30 and 90 mg/kg were 1.8, 11.2 and 100.1 μg/mL respectively which translated into approximately 4, 24.6 and 218 μM.

[3] = Plasma PK in Beagle dog after oral and IV administration; format: in vivo; parameters: Tmax: unit not given here
Description: In dogs an PO dose of 40 mg/kg (efficacious oral dose range) gives peak levels of 2.1 μg/mL (4.6 μM). […] These PK data and extrapolated conclusion are in agreement with the CV safety study, where PK after 15 minute infusion was conducted. In general, the mean concentrations peaked at the 10-minute time point, post-initiation, for each 15-minute infusion of sulcardine sulfate at 10 and 30 mg/kg (efficacious dose against ventricular arrhythmia). The mean peak plasma concentrations were 1.8 (4.2 μM) and 11.2 μg/mL (24.6 μM), respectively (data not shown). These values were well below in the case of the lower dose to barely reaching some but not all atrial cell patch clamp IC50s on various ion channels, although still associated with significant drops in mean arterial pressure, tachycardia, QT interval prolongation and changes in ventricular contractility were observed.

anesthetized dogs [4] = test: Cardiovascular safety in anesthetized dogs with diphenhydramine pretreatment; format: in vivo, dog; details: diphenhydramine pre-treated animals
Description: as §1, with “90 mg/kg” for “90-mg/kg”, “minutes. Another set of two dogs received test article after pre-treatment with diphenhydramine (1 mg/kg administered 30 minutes prior to start of test article infusion).” for “minutes.”, “biochemistry, hematology,” for “biochemistries, hematologies,”, “histamine levels.” for “histamine.”
Group 2 Animals: Sulcardine sulfate at 10, 30 and 90 mg/kg with diphenhydramine (1 mg/kg) administered approximately 30 minutes before treatment with 10 mg/kg sulcardine sulfate. Animals pre-treated with diphenhydramine (H1 antagonist) and dosed with sulcardine sulfate at 10 mg/kg, presented hemodynamic changes which are mediated by H2 receptors. The changes resembled those noted in Group 1 animals, but were of a reduced magnitude. […]

dogs = test: Heart rate and blood pressure during slow (45 min) infusion in dogs; format: in vivo, dog; details: for Heart rate / Mean blood pressure: 14 mg/kg i.v. over 45 minutes
Description: Three additional animals received sulcardine sulfate (14 mg/kg, i.v.) infused over 45 minutes. The purpose of this study was to investigate whether or not a slow infusion (45 min) of sulcardine sulfate would affect heart rate and blood pressure. […] The change in blood pressure was modest, most likely due to a compensatory increase in the resting heart rate.

[5] = Plasma PK in Beagle dog after oral and IV administration; format: in vivo; parameters: AUC / CLs / Tmax / V/F (c): unit not given here; Cmax: unit: μg/mL
[6] = 90 mg/kg, final 15-minute infusion

For sulcardine sulfate, the “mean arterial pressure initial increase” value (anesthetized dogs [1]; 10 mg/kg, one animal out of two, maximum at 10 minutes post start of dosing) was “+66%”, the QTc prolongation (anesthetized dogs [1]; 10 mg/kg, within 5 minutes of initiation) was ≤ 20 ms and the “maximum histamine plasma concentration” value (anesthetized dogs [1]; 10 mg/kg, at 5 min and 10 min post-Rx respectively) was 1874 nM and 1919 nM. For the same substance, the “maximum histamine plasma concentration” value (anesthetized dogs [1]; 30 mg/kg) was 251 nM and 183 nM, the QTc prolongation (anesthetized dogs [1]; 30 mg/kg infusion, cumulative) was “approximately 35 msec” and the “maximum histamine plasma concentration” value (anesthetized dogs [1]; 90 mg/kg) was 99 nM and 64 nM. For the same substance, the mortality (anesthetized dogs [1]; [6]) was “all animals succumbed”, the QRS widening (anesthetized dogs [1]; all dose levels (10, 30, 90 mg/kg)) was “QRS widening was also noted at all dose levels” and the “mean peak plasma concentration” value ([2]; 90 mg/kg, 15 minute infusion) was 100.1 μg/mL and ~218 μM. The Cmax ([2]; dogs, read-out: Cmax that led to observed side effects such as hypotension) was 25 µM, the K10 ([3]; 40 mg/kg po) was 0.1748 ± 0.0306 h⁻¹ and the Tmax ([3]; 40 mg/kg po) was 1.508 ± 0.4160. The peak levels ([3]; dogs, PO 40 mg/kg, 40 mg/kg) was 2.1 μg/mL and 4.6 μM, the mortality (anesthetized dogs [4]; [6]) was “all animals succumbed” and the severity of tachycardia (anesthetized dogs [4]; after completion of dosing at 30 mg/kg) was “above 200 % of baseline”. For the same substance, the Heart rate (dogs; time 10 minutes) was 95.0 ± 7.6 bpm, the Mean blood pressure (dogs; time 10 minutes) was 165.3 ± 0.3 mmHg and the Heart rate (dogs; time 25 minutes) was 115.0 ± 5.8 bpm. It also gave a Mean blood pressure (dogs; time 25 minutes) of 167.7 ± 9.8 mmHg, a Heart rate (dogs; time 40 minutes) of 115.0 ± 5.0 bpm and a Mean blood pressure (dogs; time 40 minutes) of 162.7 ± 11.3 mmHg. The Heart rate (dogs; time 55 minutes) was 103.3 ± 6.0 bpm, the Mean blood pressure (dogs; time 55 minutes) was 152.0 ± 16.2 mmHg and the “effect of slow intravenous administration on resting blood pressure and/or heart rate” value (dogs; total intravenous dose of 14 mg/kg over 45 min) was “did not result in a marked change in resting blood pressure and/or heart rate”. For the same substance, the AUC ([5]; 8 mg/kg fast i.v push) was 4.750 ± 1.778, the CLs ([5]; 8 mg/kg fast i.v push) was 1.850 ± 0.5911 and the K10 ([5]; 8 mg/kg fast i.v push) was 0.7378 ± 0.2645 h⁻¹. The K12 ([5]; 8 mg/kg fast i.v push) was 1.982 ± 1.157 h⁻¹, the K21 ([5]; 8 mg/kg fast i.v push) was 0.5196 ± 0.3149 h⁻¹ and the T1/2α ([5]; 8 mg/kg fast i.v push) was 0.2898 ± 0.2041 h. For the same substance, the T1/2β ([5]; 8 mg/kg fast i.v push) was 6.107 ± 1.537 h, the “V/F (c)” value ([5]; 8 mg/kg fast i.v push) was 2.815 ± 1.714 and the AUC ([5]; 40 mg/kg po) was 19.57 ± 2.414. For the same substance, the CLs ([5]; 40 mg/kg po) was 2.065 ± 0.2283, the Cmax ([5]; 40 mg/kg po) was 2.121 ± 0.4025 and the K12 ([5]; 40 mg/kg po) was 0.1806 ± 0.0817 h⁻¹. The K21 ([5]; 40 mg/kg po) was 0.1778 ± 0.1295 h⁻¹, the T1/2Ka ([5]; 40 mg/kg po) was 0.5663 ± 0.1687 h and the T1/2α ([5]; 40 mg/kg po) was 1.636 ± 0.6148 h. The T1/2β ([5]; 40 mg/kg po) was 12.21 ± 3.412 h, the “V/F (c)” value ([5]; 40 mg/kg po) was 12.08 ± 2.621 and the AUC ([5]; 80 mg/kg po) was 83.53 ± 21.27. The CLs ([5]; 80 mg/kg po) was 1.013 ± 0.2956, the Cmax ([5]; 80 mg/kg po) was 8.849 ± 1.789 and the K10 ([5]; 80 mg/kg po) was 0.1166 ± 0.0731 h⁻¹. It also gave a K12 ([5]; 80 mg/kg po) of -8.226 ± 16.60 h⁻¹, a K21 ([5]; 80 mg/kg po) of 10.10 ± 19.85 h⁻¹ and a T1/2Ka ([5]; 80 mg/kg po) of 0.3681 ± 0.2443 h. It also gave a T1/2α ([5]; 80 mg/kg po) of 1.670 ± 1.068 h, a T1/2β ([5]; 80 mg/kg po) of 8.631 ± 2.294 h and a Tmax ([5]; 80 mg/kg po) of 1.407 ± 0.6461. For the same substance, the “V/F (c)” value ([5]; 80 mg/kg po) was 16.60 ± 18.60, the AUC ([5]; 160 mg/kg po) was 291.6 ± 29.13 and the CLs ([5]; 160 mg/kg po) was 0.5527 ± 0.0533. The Cmax ([5]; 160 mg/kg po) was 19.10 ± 3.412, the K10 ([5]; 160 mg/kg po) was 0.0856 ± 0.0155 h⁻¹ and the K12 ([5]; 160 mg/kg po) was -0.0620 ± 0.1371 h⁻¹. It also gave a K21 ([5]; 160 mg/kg po) of 1.474 ± 1.562 h⁻¹, a T1/2Ka ([5]; 160 mg/kg po) of 0.8257 ± 0.5284 h and a T1/2α ([5]; 160 mg/kg po) of 1.758 ± 1.790 h. The T1/2β ([5]; 160 mg/kg po) was 9.640 ± 1.532 h, the Tmax ([5]; 160 mg/kg po) was 2.700 ± 1.001 and the “V/F (c)” value ([5]; 160 mg/kg po) was 6.528 ± 0.6551. For the same substance, the “Cmax read from PK curve” value ([5]; dogs, IV 8 mg/kg) was “about 10 μg/mL”.

— US8541464B2, “Treatment of atrial fibrillation” (HUYA Biosciences International LLC, priority 2009, dated 2013)
